Here are results for five compounds from paper PMC5237291, “Sigma-2 receptor agonist derivatives of 1-Cyclohexyl-4-[3-(5-methoxy-1,2,3,4-tetrahydronaphthalen-1-yl)propyl]piperazine (PB28) induce cell death via mitochondrial superoxide production and caspase activation in pancreatic cancer” (BMC Cancer, 2017).

Like-named read-outs stand apart in the source and are kept apart here. Bounds are passed on as bounds.

For one series, the system named is caspase-3. Nature of the series: Caspase-Glo caspase-3 activity in Panc02 cells. The following applies: 200 μM, 5 h; for Caspase-3 activation (in words): compared to DMSO control. The format is cell-based, mouse. Here is the method: Caspase-3 activity was measured in Panc02 cell lines with a Caspase-Glo® Assay Systems (Promega) according to protocol in which the reagent contain luminogenic caspase substrates that cleaved by activated caspase. […] The contents were then mixed using plate shaker for 30 s, and incubated at room temperature for 90 min. Luminescence signal was measured using multi-mode microplate reader (BioTek). Assay was performed in triplicates, and caspase activity was plotted compared cells treated with DMSO as a control.

Another series relates to BxPC3 cells. Nature of the series: MTT cell viability, BxPC3. Particulars: Homo sapiens, BXPC-3, 24 h, 24 h treatment, viability relative to vehicle. The format is cell-based, human. The protocol:
(§1) Determination of cell growth was performed using the MTT assay at 24 h. On day 1, pancreatic cancer cell lines were plated at a density of 2 × 10^4 cells/well in black clear-bottom 96-well plates for 24 h prior to treatment in a volume of 100 μL. On day 2, the cells were treated for 24 h with the various drugs concentration (1 μM-100 μM). Untreated cells served as a control. The various drug-solvents (EtOH, DMSO) were added in each control to evaluate a possible solvent cytotoxicity. After the established incubation time with drugs (24 h), MTT (0.5 mg/ml) was added to each well, and after 3–4 h incubation at 37 °C, the supernatant was removed. The formazan crystals were solubilized using 100 μl of DMSO/EtOH (1:1) and the absorbance values at 570 and 630 nm were determined on the multi-mode microplate reader (BioTek instruments, Winooski, VT). Different drug concentrations were assayed in triplicates.
(§2) Statistical analyses and data plotting were performed using GraphPad Prism software version 6.03 (San Diego, CA). Results were expressed as mean ± standard error of the mean of at least 3 biological replicates. EC50 values were calculated by curve fitting normalized viability versus drug concentration. Differences in viability, caspase-3 activity, and tumor volume were analyzed using two-way ANOVA to identify differences and confirmed with paired two tailed t-tests. Mann-Whitney test was used to compare the difference in CBC and biochemistry analyses. Kaplan-Meier survival analyses were used to assess differences between treatment groups and were compared using a log-rank test. A p-value < 0.05 was considered significant for all analyses.

A short description of series [1]: Toxicity evaluation on mice not bearing tumor (CBC, serum chemistry, pathology). The format is in vivo, C57BL/6 mice. The following applies: for Off-target effects by necropsy and laboratory evaluations: naïve C57BL/6 mice, continuous daily treatment; for Creatinine: control 0.34 ± 0.02; for RBC: control 7.14 ± 0.1; for WBC: control 10.58 ± 0.2; for HGB: control 10.7 ± 0.7; for MCH: control 15 ± 0.54; for BUN: control 27 ± 0.4; for MCHC: control 29.2 ± 1.21; for HCT: control 36.6 ± 0.08; for MCV: control 51.2 ± 0.32; for Glucose: control 62 ± 12.5; for ALT: control 260 ± 21; for Platelets: control 486 ± 67. Here is the method: […] Mice from each treatment cohort were assessed for pathologic evaluation (Digestive Diseases Research Core Center at our institution). Blood was collected for complete blood count (CBC) and biochemical analysis (AST, ALT, BUN, total protein, glucose and Cr). Organs were examined grossly and histologically.

The subject of a further series is AsPC-1 cells. Nature of the series: MTT cell viability, AsPC-1. The format is cell-based. The following applies: Homo sapiens, ASPC1, 24 h treatment, viability relative to vehicle. Here is the method: as §1, §2
The next series has as its system Panc-1 cells. Kind of series: MTT cell viability, Panc-1. The class given is cell-based. Particulars: Homo sapiens, 24 h treatment, viability relative to vehicle. Here is the method:
as §1, §2

A further series has as its system KCKO cells. Nature of the series: MTT cell viability, KCKO. The class given is cell-based. The following applies: Mus musculus, 24 h treatment, viability relative to vehicle. The protocol:
as §1, §2

A further series concerns the target sigma-2 receptor. Particulars: ref Berardi, read-out: Affinity (Ki) σ2, cited from earlier work.
Series [2] concerns Panc02 cells. Nature of the series: MTT cell viability, Panc02. The format is cell-based. Particulars: Mus musculus, 24 h treatment, viability relative to vehicle. The protocol:
as §1, §2

For the next series, the system named is KP02 cells. Nature of the series: MTT cell viability, KP02. The class given is cell-based, mouse. The following applies: Mus musculus, 24 h, 24 h treatment, viability relative to vehicle. The protocol:
as §1, §2

Another series deals with Panc02 tumors. Kind of series: In vivo tumor growth and survival, Panc02 tumors in C57BL/6 mice. Particulars: for Effect on tumor volume (in words) / Mean tumor volume following conclusion of treatment: Panc02 s.c. in female C57BL/6; for Effect on tumor volume (in words): daily i.p. treatment, compared to vehicle or gemcitabine; for Mean tumor volume following conclusion of treatment: i.p. daily for two weeks (gemcitabine once weekly), vehicle mean = 924 mm^3. The protocol: In this pre-clinical model, we utilized the Panc02 cell line, which is weakly immunogenic in C57BL/6 mice and aggressive with a subcutaneous inoculum of 1 × 10^5 cells being lethal within 6–8 weeks. In vivo studies with mice were performed to compare the effect of sigma-2 ligands with gemcitabine. Mice treated with vehicle alone (a mixture of 5% DMSO, 5% EtOH, and 10% Cremophor in H2O) served as the control cohort. Female C57BL/6 mice (10 weeks old, National Cancer Institute Laboratories) were injected in the right flank with 200 μL of a single-cell suspension of Panc02 cells in non-supplemented RPMI medium (1 × 10^6 cells per mouse). Treatment began when the mean tumor diameter was ~ 5 mm. […] Tumors were measured three times weekly in two dimensions with a digital caliper, and tumor volumes were calculated by the standard formula of Tumor Volume = Length x Width^2 × 0.5. All mice were euthanized when tumors reached a diameter of 15 mm or had ulcerated.

The next series has as its system MIAPaCa-2 cells. Nature of the series: MTT cell viability, MIAPaCa-2. The class given is cell-based. Particulars: Homo sapiens, MIA PaCa-2, 24 h treatment, viability relative to vehicle. The protocol: as §1, §2
Series [3] deals with Panc02 cells. Nature of the series: ROS interference in cell viability (MTT with antioxidants). The format is cell-based, mouse. Particulars: 24 h. The protocol:
The interference of ROS in cell viability was indirectly determined by MTT assay reported above at 24 h. On day 1, Panc02 cells were plated at a density of 2 × 10^4 cells/well in opaque 96-well, clear-bottom plates 24 h prior to treatment. On day 2, cells were treated with the drugs (50 μM) in the presence or absence of α-tocopherol (100 μM) or N-Acetyl-L-cysteine (100 μM). After incubation (24 h) with drugs, MTT assay was performed as above.

[4] abbreviates: not tumor-bearing C57BL/6 mice, n = 3, daily i.p., 5 days.

As to `COc1cccc2c1CCCC2CCCN1CCN(C2CCCCC2)CC1` (centres unmarked) [PB28, 1-Cyclohexyl-4-[3-(5-methoxy-1,2,3,4-tetrahydronaphthalen-1-yl)propyl] piperazine], in the series with caspase-3, the “Caspase-3 activation (in words)” value is “did not activate at all”. The same compound gave an EC50 in the series with BxPC3 cells greater than 100 µM. In addition, in [1], the “Off-target effects by necropsy and laboratory evaluations” value (from here on “Off-target effects”) is recorded as “no major off-target effects”. In series [1] (setting [4]), the Creatinine is 0.37 ± 0.04 mg/dL, the RBC was 10.24 ± 0.3 10^6/μL, the WBC is recorded as 11.11 ± 1.97 10^3/μL and the HGB is 15.65 ± 0.55 g/dL. In [1] (setting [4]), this compound registered an MCH of 15.3 ± 0.1 pg, a BUN of 32 ± 1 mg/dL, an MCHC of 29.3 ± 0.2% and an HCT of 53.4 ± 1.5%. In series [1] (setting [4]), the MCV worked out at 52.15 ± 0.05 fL, the Glucose is 92.5 ± 22.5 mg/dL, the ALT is recorded as 249 ± 9 μ/L and the Platelets is 643.5 ± 95.5 10^3/μL. In the series with AsPC-1 cells, this compound had an EC50 greater than 100 µM. In the series on Panc-1 cells, this compound came in with an EC50 greater than 100 µM. The compound also showed an EC50 in the series on KCKO cells of 87 µM. Also, the Ki at sigma-2 receptor (et al. 2009 [26]) is 0.00068 µM. Besides, the midpoint of the response in the series on Panc02 cells [2], the EC50, lay at 43 µM. Also, the EC50 with KP02 cells was greater than 100 µM. In the series on Panc02 tumors, the “Effect on tumor volume (in words)” value is on record as “decreased tumor volume similar to gemcitabine alone” and the “Mean tumor volume following conclusion of treatment” value stood at 369 mm^3. The compound also had a Median survival with Panc02 tumors (Panc02 tumor-bearing C57BL/6 mice, treatment discontinued on day 15, DMSO (vehicle) 23 days) of 27 days. This compound also came in with an EC50 in the series on MIAPaCa-2 cells of 51 µM.

Take `Nc1ccn([C@@H]2O[C@H](CO)[C@@H](O)C2(F)F)c(=O)n1` [gemcitabine, Gemcitabine, reference compound]: the “Mean tumor volume following conclusion of treatment” value with Panc02 tumors is recorded as 395 mm^3.

As for `COc1cccc2c(CCCN3CCN(C4CCCCC4)CC3)cccc12` [PB183, 1-Cyclohexyl-4-[3-(5-methoxynaphthalen-1-yl)propyl]-piperazine], the “Caspase-3 activation (in words)” value in the series on caspase-3 is “little effect”. For the same compound, the EC50 in the series with BxPC3 cells amounted to 100 µM. For the same compound, in series [1], the “Off-target effects” value is on record as “no major off-target effects”. In series [1] (setting [4]), the Creatinine turned out to be 0.37 ± 0.04 mg/dL, the RBC is 9.24 ± 0.9 10^6/μL, the WBC is 6.42 ± 1.22 10^3/μL and the HGB turned out to be 14.85 ± 1.35 g/dL. In [1] (setting [4]), the MCH is on record as 16.1 ± 0.1 pg, the BUN is listed as 21 ± 2 mg/dL, the MCHC was determined as 30.4 ± 0.7% and the HCT is listed as 48.8 ± 3.3%. Besides, in [1] (setting [4]), the MCV is recorded as 52.9 ± 1.6 fL, the ALT is on record as 203 ± 34 μ/L and the Platelets was 727.5 ± 65.5 10^3/μL. Besides, the AST in [1] (not tumor-bearing C57BL/6 mice, n = 3, daily i.p., 5 days, control 5.6 ± 0.05) is listed as 5.4 ± 0.5 μ/L. In the series on AsPC-1 cells, this compound displayed an EC50 greater than 100 µM. The same compound had an EC50 with Panc-1 cells greater than 100 µM. In the series on Panc02 cells [3] (Panc02 cells, ligand 50 μM with NAC 100 μM), the “Cell death on co-treatment with NAC” value is given as “even higher levels of cell death”. The same compound showed an EC50 in the series with KCKO cells of 51 µM. In addition, the Ki on sigma-2 receptor (et al. 2004 [25]) was 0.00924 µM. The compound further returned an EC50 with Panc02 cells [2] of 83 µM. Besides, the midpoint of the response in the series on KP02 cells, the EC50, lay at 97 µM. Further, in the series on Panc02 tumors, the “Effect on tumor volume (in words)” value is on record as “not effective”. For the same compound, in the series with MIAPaCa-2 cells, the EC50 is 49 µM.

In the case of `CC(=O)N[C@@H](CS)C(=O)O` [N-acetyl-L-cysteine (NAC), N-Acetyl-L-cysteine, reference compound], the “Protection against sigma-2 ligand induced cell death (Panc02 viability)” value with Panc02 cells [3] (antioxidant 100 μM one hour prior to sigma-2 ligands 50 μM) was “did not”.

In the case of `COc1cccc2c1CCCC2CCCN1CCC(C2CCCCC2)CC1` (centres unmarked) [PB221, 4-Cyclohexyl-1-[3-(5-methoxy-1,2,3,4-tetrahydronaphthalen-1-yl-propyl)]piperidine], the “Increase of caspase-3 activity compared to cells treated with DMSO vehicle” value with caspase-3 is listed as 15.7 fold. The compound also showed an EC50 in the series with BxPC3 cells of 100 µM. Also, in series [1], the “Off-target effects” value is “no major off-target effects”. Moreover, in series [1] (setting [4]), the Creatinine turned out to be 0.35 ± 0.03 mg/dL, the RBC is reported as 9.59 ± 0.71 10^6/μL, the WBC is 8.12 ± 0.14 10^3/μL and the HGB is 14.7 ± 0.8 g/dL. In series [1] (setting [4]), this compound yielded an MCH of 15.35 ± 0.35 pg, a BUN of 30.5 ± 3.5 mg/dL, an MCHC of 29.25 ± 0.55% and an HCT of 50.35 ± 3.75%. Moreover, in series [1] (setting [4]), the MCV stood at 52.5 ± 0.02 fL, the Glucose worked out at 64.5 ± 7.5 mg/dL, the ALT came out at 219 ± 5 μ/L and the Platelets is 563 ± 17 10^3/μL. For the same compound, in the series on AsPC-1 cells, the EC50 is greater than 100 µM. Further, the EC50 in the series on Panc-1 cells was greater than 100 µM. For the same compound, the EC50 with KCKO cells worked out at 19 µM. Also, the Ki on sigma-2 receptor (et al. 2009 [26]) is 0.0188 µM. Besides, the response with Panc02 cells [2] was half-maximal at 37 µM (EC50). The compound also returned an EC50 in the series with KP02 cells greater than 100 µM. The “Effect on tumor volume (in words)” value in the series on Panc02 tumors was “did not confer a significantly different tumor volume than vehicle alone”. This compound also displayed an EC50 in the series on MIAPaCa-2 cells of 50 µM.
